Assay results: US20240358665A1, “SMALL MOLECULE MELPHALAN HYDROGEL AND METHOD FOR PREPARING THE SAME” (Changzhi Medical College, priority 2024, published 2024)

Test: Change of transmittance over time at 790 nm (ultraviolet spectrophotometer)
Format: physicochemical
Conditions: melphalan dissolved in physiological saline (FIG. 5: 0.9% NaCl, content 2%)
Experimental: The small molecule melphalan hydrogels prepared in Embodiments 1 to 3 of the present disclosure are tested for transmittance, and the specific testing steps are as follows: • Prepare small molecule melphalan solutions according to the methods in Embodiments 1 to 3 above, take 3 mL of the solution and place it in a glass dish, and place the glass dish in an ultraviolet spectrophotometer, and measure the change of transmittance over time, at 790 nm. The phenomenon that the transmittance gradually decreases from 100% (solution state) to less than 10% proves that the small molecule melphalan solution is transformed into a hydrogel.

N[C@@H](Cc1ccc(N(CCCl)CCCl)cc1)C(=O)O [melphalan, Melphalan]
transmittance after gelation (falls from 100% in solution state): less than 10%
